Results from the supplement of paper PMC8149375.

Experiments:
Details in all cases: treatment: drug alone; 5 days
769-P [1] = experiment: AUC of dose-response viability curve, drug alone (arbitrary (AUC of normalised viability)); higher = less growth inhibition
Description: (§1)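 Primary HTS: 8 RCC cell lines treated with 8 doses (up to 10 uM) of each library drug alone for 5 days; viability read by CellTiter-Glo and normalised to DMSO. GI50 was fitted with XLfit (4-parameter), AUC is the area under the dose-response curve, and minimum viability is the lowest fraction of DMSO viability across doses.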

TK-10 [2] = experiment: as above
Description: as §1

CAKI-1 [3] = experiment: as above
Description: as §1

786-O [4] = experiment: as above
Description: as §1

SN12C [5] = experiment: as above
Description: as §1

A498 [6] = experiment: as above
Description: as §1

UO-31 [7] = experiment: as above
Description: as §1

ACHN [8] = experiment: as above
Description: as §1

769-P [9] = experiment: GI50, drug alone; higher = less potent
Description: as §1

TK-10 [10] = experiment: GI50, drug alone; higher = less potent
Description: as §1

CAKI-1 [11] = experiment: GI50, drug alone; higher = less potent
Description: as §1

786-O [12] = experiment: GI50, drug alone; higher = less potent
Description: as §1

SN12C [13] = experiment: GI50, drug alone; higher = less potent
Description: as §1

A498 [14] = experiment: GI50, drug alone; higher = less potent
Description: as §1

UO-31 [15] = experiment: GI50, drug alone; higher = less potent
Description: as §1

ACHN [16] = experiment: GI50, drug alone; higher = less potent
Description: as §1

769-P [17] = experiment: minimum viability across doses, drug alone, relative to DMSO (fraction); higher = less growth inhibition
Description: as §1

TK-10 [18] = experiment: as above
Description: as §1

CAKI-1 [19] = experiment: as above
Description: as §1

786-O [20] = experiment: as above
Description: as §1

SN12C [21] = experiment: as above
Description: as §1

A498 [22] = experiment: as above
Description: as §1

UO-31 [23] = experiment: as above
Description: as §1

ACHN [24] = experiment: as above
Description: as §1

| SMILES | GI50, drug alone (786-O [12]) [µM] | GI50, drug alone (ACHN [16]) [µM] | AUC of dose-response viability curve (769-P [1]) | AUC of dose-response viability curve (TK-10 [2]) | AUC of dose-response viability curve (CAKI-1 [3]) | AUC of dose-response viability curve (786-O [4]) | AUC of dose-response viability curve (SN12C [5]) | AUC of dose-response viability curve (A498 [6]) | AUC of dose-response viability curve (UO-31 [7]) | AUC of dose-response viability curve (ACHN [8]) | GI50, drug alone (769-P [9]) [µM] | GI50, drug alone (TK-10 [10]) [µM] | GI50, drug alone (CAKI-1 [11]) [µM] | GI50, drug alone (SN12C [13]) [µM] | GI50, drug alone (A498 [14]) [µM] | GI50, drug alone (UO-31 [15]) [µM] | minimum viability across doses (769-P [17]) | minimum viability across doses (TK-10 [18]) | minimum viability across doses (CAKI-1 [19]) | minimum viability across doses (786-O [20]) | minimum viability across doses (SN12C [21]) | minimum viability across doses (A498 [22]) | minimum viability across doses (UO-31 [23]) | minimum viability across doses (ACHN [24]) |
| --- | --- | --- | --- | --- | --- | --- | --- | --- | --- | --- | --- | --- | --- | --- | --- | --- | --- | --- | --- | --- | --- | --- | --- | --- |
| Oc1cc(O)cc(/C=C/c2ccc(O)c(O)c2)c1 [Piceatannol] | 2.37 | > 10 | 2.35 | 3.2 | 3.58 | 2.54 | 3.18 | 4.25 | 5.06 | 3.28 | > 10 | > 10 | 7.74 | > 10 | > 10 | > 10 | 0.849 | 0.685 | 0.33 | 0.383 | 0.712 | 1.05 | 0.908 | 0.67 |
| Br.Cc1ccc(C(=O)Cn2c3c(sc2=N)CCCC3)cc1 [Pifithrin-α] | > 10 | > 10 | 3.5 | 2.84 | 3.26 | 1.95 | 3.09 | 4.11 | 3.69 | 3.14 | > 10 | > 10 | > 10 | > 10 | > 10 | > 10 | 0.918 | 0.636 | 0.871 | 0.385 | 0.76 | 0.946 | 0.864 | 0.743 |
| Nc1cccc2c1C(=O)N(C1CCC(=O)NC1=O)C2=O (stereo unspecified) [Pomalidomide] | 0.00888 | > 10 | 3.35 | 3.12 | 3.49 | 2 | 3.38 | 3.01 | 3.85 | 3.14 | > 10 | > 10 | > 10 | > 10 | > 10 | > 10 | 0.887 | 0.818 | 0.924 | 0.424 | 0.884 | 0.732 | 1.01 | 0.85 |
| O=c1c(O)c(-c2ccc(O)c(O)c2)oc2cc(O)cc(O)c12 [Quercetin (Sophoretin)] | > 10 | > 10 | 3.3 | 3.01 | 3.2 | 2.36 | 3.13 | 3.6 | 3.57 | 3.48 | > 10 | > 10 | > 10 | > 10 | > 10 | > 10 | 0.784 | 0.736 | 0.861 | 0.53 | 0.821 | 0.923 | 0.807 | 0.899 |
| CC(C)(C)c1cc(NC(=O)Nc2ccc(-c3cn4c(n3)sc3cc(OCCN5CCOCC5)ccc34)cc2)no1 [Quizartinib (AC220)] | 1.36 | 3.48 | 2.98 | 2.84 | 2.38 | 2.76 | 3.25 | 4.53 | 5.25 | 2.72 | 4.3 | > 10 | 2.62 | > 10 | > 10 | > 10 | 0.234 | 0.612 | 0.408 | 0.129 | 0.819 | 1.07 | 1.16 | 0.381 |
| COc1cc(Nc2ncc(F)c(Nc3ccc4c(n3)NC(=O)C(C)(C)O4)n2)cc(OC)c1OC [R406(free base)] | 1.59 | 1.42 | 3.13 | 2.44 | 2.61 | 2.21 | 2.79 | 4.42 | 4.5 | 2.35 | 9.62 | 4.07 | 1.26 | 3.89 | > 10 | 8.51 | 0.474 | 0.396 | 0.142 | 0.128 | 0.359 | 1 | 0.0454 | 0.306 |

Second part, led by results:

| GI50, drug alone (786-O [12]) [µM] | GI50, drug alone (ACHN [16]) [µM] | SMILES | AUC of dose-response viability curve (769-P [1]) | AUC of dose-response viability curve (TK-10 [2]) | AUC of dose-response viability curve (CAKI-1 [3]) | AUC of dose-response viability curve (786-O [4]) | AUC of dose-response viability curve (SN12C [5]) | AUC of dose-response viability curve (A498 [6]) | AUC of dose-response viability curve (UO-31 [7]) | AUC of dose-response viability curve (ACHN [8]) | GI50, drug alone (769-P [9]) [µM] | GI50, drug alone (TK-10 [10]) [µM] | GI50, drug alone (CAKI-1 [11]) [µM] | GI50, drug alone (SN12C [13]) [µM] | GI50, drug alone (A498 [14]) [µM] | GI50, drug alone (UO-31 [15]) [µM] | minimum viability across doses (769-P [17]) | minimum viability across doses (TK-10 [18]) | minimum viability across doses (CAKI-1 [19]) | minimum viability across doses (786-O [20]) | minimum viability across doses (SN12C [21]) | minimum viability across doses (A498 [22]) | minimum viability across doses (UO-31 [23]) | minimum viability across doses (ACHN [24]) |
| --- | --- | --- | --- | --- | --- | --- | --- | --- | --- | --- | --- | --- | --- | --- | --- | --- | --- | --- | --- | --- | --- | --- | --- | --- |
| 2.01 | 5.85 | COc1cc(Nc2ncc(F)c(Nc3ccc4c(n3)NC(=O)C(C)(C)O4)n2)cc(OC)c1OC.O=S(=O)(O)c1ccccc1 [R406] | 3.1 | 2.85 | 2.59 | 2.46 | 3.11 | 3.57 | 2.59 | 2.94 | > 10 | 9.02 | 1.33 | 4.6 | > 10 | 8.77 | 0.536 | 0.479 | 0.183 | 0.221 | 0.336 | 0.882 | 0.164 | 0.451 |
| 1.16 | 1.22 | COc1cc(Nc2ncc(F)c(Nc3ccc4c(n3)N(COP(=O)(O)O)C(=O)C(C)(C)O4)n2)cc(OC)c1OC [R788 (Fostamatinib)] | 2.94 | 2.64 | 2.49 | 2.54 | 2.79 | 4.24 | 4.78 | 2.73 | 3.5 | 3.3 | 0.913 | 2.98 | > 10 | 6.02 | 0.145 | 0.308 | 0.0246 | 0.158 | 0.287 | 1.06 | 0.00902 | 0.0584 |
| 5.37 | 8.48 | FC(F)(F)c1ccc(Nc2nc3cc(Oc4ccnc(-c5ncc(C(F)(F)F)[nH]5)c4)ccc3[nH]2)cc1 [Raf265 derivative] | 3.24 | 3.18 | 3.62 | 2.69 | 3.32 | 4.16 | 3.5 | 3.47 | 9.97 | > 10 | 9.39 | > 10 | > 10 | 1.05 | 0.473 | 0.534 | 0.298 | 0.141 | 0.651 | 1.04 | 0.0014 | 0.142 |
